Source: ChEMBL document CHEMBL1123576

Tests used:
[1] = target: T1, Opioid receptors; mu/kappa/delta (Homo sapiens) (UniProt P41145+P41143+P35372); test: The IC50 value of agonist (DADLE) in presence of antagonist (Compound 20 nM) divided by the control […] value with no antagonist in MVD (mouse vas deferens); format: functional; conditions: Cavia porcellus
[2] = target: T1, Opioid receptors; mu/kappa/delta (Homo sapiens); test: The IC50 value of agonist (ethylketazocine) in presence of antagonist (Compound 20 nM) divided by the control […] value with no antagonist in GPI (Guinea pig ileum); format: functional, tissue-based; conditions: Cavia porcellus, target entry is the homologue from another species
[3] = target: T1, Opioid receptors; mu/kappa/delta (Homo sapiens); test: The IC50 value of agonist (morphine) in presence of antagonist (Compound 20 nM) divided by the control […] value with no antagonist in GPI (Guinea pig ileum); format: functional, tissue-based; conditions: Cavia porcellus, target entry is the homologue from another species

T1 sequence (P35372 whole entry, looked up): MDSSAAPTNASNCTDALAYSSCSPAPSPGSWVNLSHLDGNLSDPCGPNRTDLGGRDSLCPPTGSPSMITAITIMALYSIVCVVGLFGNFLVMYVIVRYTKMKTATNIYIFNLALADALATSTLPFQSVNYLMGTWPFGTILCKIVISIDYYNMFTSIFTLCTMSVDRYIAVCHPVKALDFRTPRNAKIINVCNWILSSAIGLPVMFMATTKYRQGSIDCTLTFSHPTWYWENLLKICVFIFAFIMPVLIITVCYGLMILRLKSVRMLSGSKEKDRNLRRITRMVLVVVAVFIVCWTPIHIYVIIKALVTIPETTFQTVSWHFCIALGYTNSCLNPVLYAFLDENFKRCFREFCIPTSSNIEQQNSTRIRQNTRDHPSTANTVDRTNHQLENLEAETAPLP
T1 sequence (P41143 whole entry, looked up): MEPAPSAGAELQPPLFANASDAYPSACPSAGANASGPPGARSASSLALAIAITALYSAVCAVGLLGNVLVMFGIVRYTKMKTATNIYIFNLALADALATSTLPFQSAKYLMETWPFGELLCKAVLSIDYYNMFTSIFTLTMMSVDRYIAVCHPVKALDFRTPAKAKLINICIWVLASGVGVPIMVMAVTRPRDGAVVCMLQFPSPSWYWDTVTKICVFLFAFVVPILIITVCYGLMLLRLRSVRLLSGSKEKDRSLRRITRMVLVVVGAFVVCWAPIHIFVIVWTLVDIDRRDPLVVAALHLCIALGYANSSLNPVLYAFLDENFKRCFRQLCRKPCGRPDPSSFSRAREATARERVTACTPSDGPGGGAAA
T1 sequence (P41145 whole entry, looked up): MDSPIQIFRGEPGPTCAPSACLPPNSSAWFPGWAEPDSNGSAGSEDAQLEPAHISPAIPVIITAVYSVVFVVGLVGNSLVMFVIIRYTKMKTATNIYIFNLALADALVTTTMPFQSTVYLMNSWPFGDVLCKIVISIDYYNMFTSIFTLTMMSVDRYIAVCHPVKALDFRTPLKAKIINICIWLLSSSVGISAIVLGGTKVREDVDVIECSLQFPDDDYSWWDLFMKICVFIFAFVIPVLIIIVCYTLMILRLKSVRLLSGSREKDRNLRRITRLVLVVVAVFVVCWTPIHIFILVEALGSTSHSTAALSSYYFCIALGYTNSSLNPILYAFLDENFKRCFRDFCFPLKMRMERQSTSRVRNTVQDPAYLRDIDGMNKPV

Row | SMILES | Ratio [1] | Ratio [2] | Ratio [3]
1 | Cn1c2c(c3c1[C@@H]1Oc4c(O)ccc5c4[C@@]14CCN(CC1CC1)[C@H](C5)C4(O)C3)CC1(O)[C@H]3Cc4ccc(O)c5c4[C@@]1(CCN3CC1CC1)[C@H]2O5 (stereo partly specified) | 4.5 | 128 | 5.4
2 | Oc1ccc2c3c1O[C@@H]1c4[nH]c5c(c4CC4(O)[C@@H](C2)N(CC2CC2)CC[C@]314)CC1(O)[C@H]2Cc3ccc(O)c4c3[C@]1(CCN2CC1CC1)[C@H]5O4 (stereo partly specified) | 2 | 50.4 | 1.6
